Source: BindingDB's records for patent US20230382889 (Volastra Therapeutics, 2023)

Biological target: T1, Kinesin-like protein KIF18A (Homo sapiens, UniProt Q8NI77)
T1 sequence (Q8NI77 whole entry): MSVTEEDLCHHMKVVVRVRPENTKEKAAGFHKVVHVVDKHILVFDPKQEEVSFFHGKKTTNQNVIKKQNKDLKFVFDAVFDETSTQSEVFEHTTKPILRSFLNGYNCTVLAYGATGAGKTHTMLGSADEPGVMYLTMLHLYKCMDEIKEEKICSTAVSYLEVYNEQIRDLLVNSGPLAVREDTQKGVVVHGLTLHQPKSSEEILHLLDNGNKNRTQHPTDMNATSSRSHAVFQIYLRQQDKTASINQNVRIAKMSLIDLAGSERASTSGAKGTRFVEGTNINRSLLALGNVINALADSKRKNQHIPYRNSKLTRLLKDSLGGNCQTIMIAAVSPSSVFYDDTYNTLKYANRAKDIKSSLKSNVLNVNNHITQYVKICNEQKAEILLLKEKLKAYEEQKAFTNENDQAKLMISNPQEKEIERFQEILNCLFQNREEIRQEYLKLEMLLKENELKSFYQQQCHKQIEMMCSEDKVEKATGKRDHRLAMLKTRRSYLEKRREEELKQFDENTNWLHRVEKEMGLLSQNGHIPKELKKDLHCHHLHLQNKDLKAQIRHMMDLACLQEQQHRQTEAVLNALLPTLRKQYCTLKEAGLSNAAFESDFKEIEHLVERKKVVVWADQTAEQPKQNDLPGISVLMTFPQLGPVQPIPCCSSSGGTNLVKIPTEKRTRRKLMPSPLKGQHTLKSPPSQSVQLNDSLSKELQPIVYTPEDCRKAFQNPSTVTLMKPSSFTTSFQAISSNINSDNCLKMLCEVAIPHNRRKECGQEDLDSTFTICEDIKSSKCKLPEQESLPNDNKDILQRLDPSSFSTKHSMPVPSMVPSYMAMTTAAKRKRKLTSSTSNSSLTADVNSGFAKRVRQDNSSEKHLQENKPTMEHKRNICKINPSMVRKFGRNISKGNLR
Assay: Inhibition of KIF18A Microtubule-Dependent ATPase Activity
Experimental: IC50 values were calculated from concentration vs. % Inhibition data via a four-parameter variable slope model.

- IC50: 77 nM
Compound: O=S(=O)(CCO)Nc1cc(N2CCC3(CC2)CC3)c(-c2cn(-c3ccc(F)c(S(=O)(=O)N4CC(F)(F)C4)c3)nn2)cn1 [US20230382889, Compound 112]
